Source: patent US20120264735A1 (priority 2009, published 2012)

Biological target: T1, c-Met kinase (recombinant c-Met) (Homo sapiens, UniProt P08581)
T1 construct: 0.27 nM recombinant c-Met
Assay: In vitro kinase assay I (homogeneous time-resolved fluorescence tyrosine kinase assay)
Type: biochemical
Description: The kinase activities of c-Met are measured using a modified version of the homogeneous-time-resolved tyrosine kinase assay described by Park et al. (1999, Anal. Biochem. 269:94-104).
The procedure for determining the potency of a compound to inhibit c-Met kinase comprises the following steps: • 1. Prepare 3-fold serial diluted compound solutions in 100% dimethyl sulfoxide (DMSO) at 20× of the desired final concentrations in a 384-well plate. • 2. Prepare a master reaction mix containing 6.67 mM MgCl2, 133.3 mM NaCl, 66.7 mM Tris-HCl (pH 7.4), 0.13 mg/ml BSA, 2.67 mM dithiothreitol, 0.27 nM recombinant c-Met and 666.7 nM biotinylated synthetic peptide substrate (biotin-ahx-EQEDEPEGDYFEWLE-CONH2) (SEQ.ID.NO.:1). • 3. In a black assay plate, add 1.5 μl of compound solution (or DMSO) and 22.5 μl of master reaction mix per well. Initiate the kinase reaction by adding 6 μl of 0.25 mM MgATP per well. Allow the reactions to proceed for 60 min at room temperature. The final conditions for the reaction are 0.2 nM c-Met, 0.5 μM substrate, 50 μM MgATP, 5 mM MgCl2, 100 mM NaCl, 2 mM DTT, 0.1 mg/ml BSA, 50 mM Tris (pH 7.4) and 5% DMSO. • 4. Stop the kinase reaction with 30 μl of Stop/Detection buffer containing 10 mM EDTA, 25 mM HEPES, 0.1% TRITON X-100, 0.750 nM Eu-chelate labeled anti-phosphotyrosine antibody PY20 (cat. #AD0067, PerkinElmer) and 50 μg/ml Streptavidin-allophycocyanin conjugate (cat. #PJ25S, Prozyme). • 5. Read HTRF signals on a Victor reader (PerkinElmer) in HTRF mode after 60-min incubation at room temperature in the dark. • 6. IC50 is determined by fitting the observed relationship between compound concentration and HTRF signal with a 4-parameter logistic equation. II. GTL-16 pY1349 Cell-Based Assay

T1 sequence (P08581 25-1390): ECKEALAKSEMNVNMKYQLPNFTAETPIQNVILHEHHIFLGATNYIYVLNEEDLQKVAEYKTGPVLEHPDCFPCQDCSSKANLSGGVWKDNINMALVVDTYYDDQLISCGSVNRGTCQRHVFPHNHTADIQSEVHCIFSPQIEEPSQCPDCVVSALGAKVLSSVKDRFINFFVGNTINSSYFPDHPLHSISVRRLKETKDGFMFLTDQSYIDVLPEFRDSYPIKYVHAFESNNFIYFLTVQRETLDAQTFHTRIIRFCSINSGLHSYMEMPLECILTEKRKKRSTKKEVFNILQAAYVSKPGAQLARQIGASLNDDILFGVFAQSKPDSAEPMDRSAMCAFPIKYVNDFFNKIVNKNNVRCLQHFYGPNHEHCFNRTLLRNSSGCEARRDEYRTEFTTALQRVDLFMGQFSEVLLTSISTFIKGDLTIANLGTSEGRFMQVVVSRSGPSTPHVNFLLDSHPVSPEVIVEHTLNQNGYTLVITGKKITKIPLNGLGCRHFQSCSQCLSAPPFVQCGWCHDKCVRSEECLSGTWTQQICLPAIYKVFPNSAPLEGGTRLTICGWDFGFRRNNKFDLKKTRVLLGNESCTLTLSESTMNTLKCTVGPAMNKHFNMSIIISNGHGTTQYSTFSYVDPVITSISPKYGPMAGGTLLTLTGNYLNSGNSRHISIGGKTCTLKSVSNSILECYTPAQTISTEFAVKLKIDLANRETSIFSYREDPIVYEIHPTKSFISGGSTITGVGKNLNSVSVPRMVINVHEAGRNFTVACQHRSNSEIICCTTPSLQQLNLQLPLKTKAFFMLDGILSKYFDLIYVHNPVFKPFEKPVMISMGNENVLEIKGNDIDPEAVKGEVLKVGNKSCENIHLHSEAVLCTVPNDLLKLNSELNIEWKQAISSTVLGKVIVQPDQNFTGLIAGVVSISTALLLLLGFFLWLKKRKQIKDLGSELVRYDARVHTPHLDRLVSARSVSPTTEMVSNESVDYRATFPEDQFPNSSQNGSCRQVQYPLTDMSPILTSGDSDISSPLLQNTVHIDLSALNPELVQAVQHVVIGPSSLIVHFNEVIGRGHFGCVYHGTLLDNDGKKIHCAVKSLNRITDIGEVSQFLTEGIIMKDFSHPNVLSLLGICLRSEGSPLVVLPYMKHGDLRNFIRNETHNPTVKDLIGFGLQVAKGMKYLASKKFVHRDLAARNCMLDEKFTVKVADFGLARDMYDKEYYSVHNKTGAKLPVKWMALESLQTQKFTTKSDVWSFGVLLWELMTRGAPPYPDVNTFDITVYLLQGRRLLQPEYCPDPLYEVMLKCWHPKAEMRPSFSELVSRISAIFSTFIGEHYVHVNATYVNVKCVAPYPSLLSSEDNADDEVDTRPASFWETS

Row | IC50 [nM] | Structure (SMILES)
1 | 100 to 1000 | CCOc1cnc(-c2cccc(Cc3nn(-c4cnn(C)c4)ccc3=O)c2F)nc1 [Example 121, 3-[3-(5-ethoxypyrimidin-2-yl)-2-fluorobenzyl]-1-(1-methyl-1H-pyrazol-4-yl)pyridazin-4(1H)-one]
2 | 1000 to 3000 | COCCOc1cnc(-c2cccc(C(CCO)c3nn(-c4cnn(C)c4)ccc3=O)c2)nc1 (racemic) [Example 253, rac-3-(3-Hydroxy-1-{3-[5-(2-methoxyethoxy)pyrimidin-2-yl]phenyl}propyl)-1-(1-methyl-1H-pyrazol-4-yl)pyridazin-4(1H)-one]
3 | < 100 | O=c1ccn(-c2ccc(F)c(F)c2)nc1Cc1cccc(-c2ncc(OC3CCOC3)cn2)c1 (single isomer, unassigned) [Example 349, 1-(3,4-difluorophenyl)-3-(3-{5-[(3R or S)-tetrahydrofuran-3-yloxy]pyrimidin-2-yl}benzyl)pyridazin-4(1H)-one]
4 | < 100 | Cn1cc(-n2ccc(=O)c(Cc3cccc(NC(=O)OCC4CCNCC4)c3)n2)cn1 [Example 617, piperidin-4-ylmethyl (3-{[1-(1-methyl-1H-pyrazol-4-yl)-4-oxo-1,4-dihydropyridazin-3-yl]methyl}phenyl)carbamate]
5 | < 100 | CCn1cc(-n2ccc(=O)c(Cc3cccc(-c4ncc(OCC5(F)CCNCC5)cn4)c3)n2)cn1 [Example 335, 1-(1-ethyl-1H-pyrazol-4-yl)-3-(3-{5-[(4-fluoropiperidin-4-yl)methoxy]pyrimidin-2-yl}benzyl)pyridazin-4(1H)-one]
6 | < 100 | CCOc1ccnc(-c2cccc(C(C)c3nn(-c4cnn(C)c4)ccc3=O)c2)n1 (racemic) [Example 678, rac-3-{1-[3-(4-Ethoxypyrimidin-2-yl)phenyl]ethyl}-1-(1-methyl-1H-pyrazol-4-yl)pyridazin-4(1H)-one]
7 | < 100 | COC(C)(C)COc1cnc(-c2cccc(Cc3nn(-c4cnn(C)c4)ccc3=O)c2)nc1 [Example 267, 3-{3-[5-(2-methoxy-2-methylpropoxy)pyrimidin-2-yl]benzyl}-1-(1-methyl-1H-pyrazol-4-yl)pyridazin-4(1H)-one]
8 | < 100 | Cn1cc(-n2ccc(=O)c(Cc3cccc(-c4ncc(CN5CCOCC5)cn4)c3)n2)cn1 [Example 426, 1-(1-Methyl-1H-pyrazol-4-yl)-3-{3-[5-(morpholin-4-ylmethyl)pyrimidin-2-yl]benzyl}pyridazin-4(1H)-one]
9 | < 100 | CCn1cc(-n2ccc(=O)c(Cc3cccc(-c4ncc(OCC5CCNCC5)cn4)c3)n2)cn1 [Example 336, 1-(1-ethyl-1H-pyrazol-4-yl)-3-{3-[5-(piperidin-4-ylmethoxy)pyrimidin-2-yl]benzyl}pyridazin-4(1H)-one]
10 | < 100 | CCCOC(=O)Nc1cccc(Cc2nn(-c3cccnc3)ccc2=O)c1 [Example 28, propyl {3-[(4-oxo-1-pyridin-3-yl-1,4-dihydropyridazin-3-yl)methyl]phenyl}carbamate]
11 | < 100 | N#Cc1cccc(-n2ccc(=O)c(Cc3cccc(NC(=O)OCC4COCCO4)c3)n2)c1 (racemic) [Example 601, rac-1,4-dioxan-2-ylmethyl (3-{[1-(3-cyanophenyl)-4-oxo-1,4-dihydropyridazin-3-yl]methyl}phenyl)carbamate]
12 | < 100 | CC(C)COC(=O)Nc1cccc(Cc2nn(-c3cnn(CCCC(=O)N4CCCC4)c3)ccc2=O)c1 [Example 700, 2-methylpropyl [3-({4-oxo-1-[1-(4-oxo-4-pyrrolidin-1-ylbutyl)-1H-pyrazol-4-yl]-1,4-dihydropyridazin-3-yl}methyl)phenyl] carbamate]

More lines, now with the values behind:

Row | Structure (SMILES) | IC50 [nM]
13 | Cn1cc(-n2ccc(=O)c(Cc3cccc(-n4cccn4)c3)n2)cn1 [Example 21, 1-(1-methyl-1H-pyrazol-4-yl)-3-[3-(1H-pyrazol-1-yl)benzyl]pyridazin-4(1H)-one] | 1000 to 3000
14 | Cn1cc(-n2ccc(=O)c(Cc3cccc(-c4ncc(N5CCC(O)CC5)cn4)c3)n2)cn1 [Example 442, 3-{3-[5-(4-hydroxypiperidin-1-yl)pyrimidin-2-yl]benzyl}-1-(1-methyl-1H-pyrazol-4-yl)pyridazin-4(1H)-one] | < 100
15 | CC(C)COC(=O)Nc1cccc(Cc2nn(-c3cnn(CCC(=O)O)c3)ccc2=O)c1 [Example 182, 3-{4-[3-(3-{[(2-methylpropoxy)carbonyl]amino}benzyl)-4-oxopyridazin-1(4H)-yl]-1H-pyrazol-1-yl}propanoic acid] | < 100
16 | CCC(C)c1cnc(-c2cccc(Cc3nn(-c4cnn(C)c4)ccc3=O)c2)nc1 (racemic) [Example 408, rac-3-{3-[5-(Butan-2-yl)pyrimidin-2-yl]benzyl}-1-(1-methyl-1H-pyrazol-4-yl)pyridazin-4(1-1)-one] | < 100
17 | CCOc1cnc(-c2cccc(Cc3nn(-c4cnn(C5CN(C(=O)OC(C)(C)C)C5)c4)ccc3=O)c2)nc1 [Example 661, tert-butyl 3-(4-{3-[3-(5-ethoxypyrimidin-2-yl)benzyl]-4-oxopyridazin-1(4H)-yl}-1H-pyrazol-1-yl)acetidine-1-carboxylate] | < 100
18 | CCOC(=O)Nc1cccc(Cc2nn(-c3cccc(Br)c3)ccc2=O)c1 [Example 13, ethyl (3-{[1-(3-bromophenyl)-4-oxo-1,4-dihydropyridazin-3-yl]methyl}phenyl)carbamate] | < 100
19 | CC(c1cccc(-c2ncc(O[C@@H]3CCNC[C@H]3F)cn2)c1)c1nn(-c2cnn(C)c2)ccc1=O (single isomer, unassigned) [Example 342, 3-{(1R or S)-1-[3-(5-{[(3R or S, 4R or S)-3-fluoropiperidin-4-yl]oxy}pyrimidin-2-yl)phenyl]ethyl}-1-(1-methyl-1H-pyrazol-4-yl)pyridazin-4(1H)-one] | < 100
20 | O=C(Nc1cccc(Cc2nn(-c3cc(F)c(F)c(F)c3)ccc2=O)c1)OCCCN1CCCC1 [Example 554, 3-pyrrolidin-1-ylpropyl (3-{[4-oxo-1-(3,4,5-trifluorophenyl)-1,4-dihydropyridazin-3-yl]methyl}phenyl)carbamate] | < 100
21 | CCCOC(=O)Nc1cccc(Cc2nn(-c3cccc(C#N)c3)ccc2=O)c1 [Example 580, propyl (3-{[1-(3-cyanophenyl)-4-oxo-1,4-dihydropyridazin-3-yl]methyl}phenyl)carbamate] | < 100
22 | CCOCc1cnc(-c2cccc(C(C)c3nn(-c4cnn(C)c4)ccc3=O)c2)nc1 (racemic) [Example 221, rac-3-(1-{3-[5-(ethoxymethyl)pyrimidin-2-yl]phenyl}ethyl)-1-(1-methyl-1H-pyrazol-4-yl)pyridazin-4(1H)-one] | < 100
23 | Cn1cc(-n2ccc(=O)c(Cc3cccc(-c4ncc(OCC5COCCO5)cn4)c3)n2)cn1 (single isomer, unassigned) [Example 348, 3-(3-{5-[(2S or R)-1,4-dioxan-2-ylmethoxy]pyrimidin-2-yl}benzyl)-1-(1-methyl-1H-pyrazol-4-yl)pyridazin-4(1H)-one] | < 100
24 | COCCOC(=O)Nc1cccc(Cc2nn(-c3ccc(F)c(F)c3)ccc2=O)c1 [Example 506, 2-methoxyethyl (3-{[1-(3,4-difluorophenyl)-4-oxo-1,4-dihydropyridazin-3-yl]methyl}phenyl)carbamate] | < 100
25 | CCn1cc(-n2ccc(=O)c(Cc3cccc(-c4ncc(OC5CCOC5)cn4)c3)n2)cn1 (racemic) [Example 309, rac-1-(1-ethyl-1H-pyrazol-4-yl)-3-{3-[5-(tetrahydrofuran-3-yloxy)pyrimidin-2-yl]benzyl}pyridazin-4(1H)-one] | < 100
26 | CCOc1cnc2ccc(Cc3nn(-c4cc(F)c(F)c(F)c4)ccc3=O)cc2c1 [Example 65, 3-[(3-ethoxyquinolin-6-yl)methyl]-1-(3,4,5-trifluorophenyl)pyridazin-4(1H)-one] | 100 to 1000
27 | CCn1cnc(-c2cccc(Cc3nn(-c4cccc(C#N)c4)ccc3=O)c2)n1 [Example 84, 3-{3-[3-(1-Ethyl-1H-1,2,4-triazol-3-yl)benzyl]-4-oxopyridazin-1(4H)-yl}benzonitrile] | < 100
28 | Cn1cc(-n2ccc(=O)c(Cc3cccc(-c4ncc(-c5ccco5)cn4)c3)n2)cn1 [Example 404, 3-{3-[5-(furan-2-yl)pyrimidin-2-yl]benzyl}-1-(1-methyl-1H-pyrazol-4-yl)pyridazin-4(1H)-one] | < 100
29 | CCOc1cnc(-c2cccc(Cc3nn(-c4cnn(C)c4)ccc3=O)c2)nc1 [Example 3, 3-[3-(5-Ethoxypyrimidin-2-yl)benzyl]-1-(1-methyl-1H-pyrazol-4-yl)pyridazin-4(1H)-one] | < 100
30 | CN1CCC(COc2cnc(-c3cccc(Cc4nn(-c5cc(F)cc(C#N)c5)ccc4=O)c3)nc2)CC1 [Example 170, 3-fluoro-5-[3-(3-{5-[(1-methylpiperidin-4-yl)methoxy]pyrimidin-2-yl}benzyl)-4-oxopyridazin-1(4H)-yl]benzonitrile] | < 100
